The nature of series [1]: Cytotoxicity assay (Cell Titer Glo). The class given is cell-based. Particulars: human; 48 hr with compound, ATP-dependent Cell Titer Glo assay; read-out: IC50 in cytotoxicity assay (number of viable cells). The protocol: Compounds 67, 167, 169, 13, 1, 145, 29, 119, 63, 31, 39, 103, 123, 121, 97, 129, 79, 111, 85, 89, 109, 127, 131, 95, 47, 57, 69, 165, 161, 163, 3, 137, 15, 141, 41, 53, 33, 113, 93, 105, 77, 91, 81, 83, 35, 27, 65, 7, 135, 51, 139, 51, 49, 143, 5, 149, 11, 37, 21, 45, 61, 75, 23, 125, 73, 43, 171 and 101 were tested in a cytotoxicity assay with liver cells including an HCV replicon (5-2 Luc cells, 9–13 cells or Huh-7 cells). In the assay, cells were seeded onto 96-well plates (approx. 7500 cells/well in a volume of 90 μl) and grown for 24 hr at 37° C. On day 2, various concentrations of test compound (in a volume of 10 μl) were added to the wells and the cells were grown for an additional 48 hr at 37° C. On day 4, an ATP-dependent R-Luciferase assay (Cell Titer Glo assay) was performed to determine the number of viable cells.

Series [2] has as its system HCV replicon (5-2 Luc replicon-comprising cells). Briefly: HCV replicon assay (luciferase). In kind it is cell-based, Hepatitis C virus. Particulars: read-out: Replicon IC50. The method, boiled down:
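Huh7-derived 5-2 Luc replicon cells seeded 24 h at 37 °C, then exposed to compound at various concentrations for another 24 h. Luciferase quantified by Bright-Glo luminescence; IC50 = concentration giving 50% reduction in luciferase activity; reported as +/− at a 10 μM cut-off.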

Series [3] concerns HCV nonstructural protein NS5A or NS3 in 9–13 replicon cells. Briefly: Quantitative Western blot assay. The class given is cell-based, Hepatitis C virus. The following applies: read-out: Western IC50. The protocol:
Alternatively, the inhibitory activity of the compounds can be confirmed using a quantitative Western immunoblot assay utilizing antibodies specific for HCV non-structural proteins, such as NS3, NS4A NS5A and NS5B. In one embodiment of this assay, replicon cells are treated with varying concentrations of test compound to determine the concentration of test compound that yields a 50% reduction in the amount of a non-structural protein produced as compared to a control sample (IC50). A single non-structural protein may be quantified or multiple non-structural proteins may be quantified. Antibodies suitable for carrying out such immunoblot assays are available commercially (e.g., from BIODESIGN International, Saco, Me.).
Certain exemplary compounds of the invention were also tested for their ability to inhibit HCV replication using a quantitative Western blot analysis with antibodies specific for the HCV nonstructural protein NS5A or NS3. Actively dividing 9–13 replicon cells were seeded into Swell plates at a density of 1×10^5 cells/well in a volume of 2 ml/well and incubated at 37° C. and 5% CO2 for 24 hours. Various concentrations of test compounds (in a volume of 10 ul) were added to the wells and the cells incubated for another 48 hours. Protein samples were prepared from the cultured cells, resolved on a SDS-PAGE gel and transferred to a nitrocellulose membrane. The membrane was blocked with 5% non-fat milk in PBS for 1 hour at room temperature. Primary antibody (anti NS5A antibody; BIODESIGN International, Saco, Me. or anti NS3 antibody, Rigel) incubation was performed for 1 hour at room temperature, after which the membrane was washed 3 times (for 15 min per time) with PBST (PBS plus 0.1% Tween 20). Horseradish peroxidase conjugated secondary antibody incubation was performed for 1 hour at room temperature and the membrane was washed 3 times (for 15 min per time) with PBST. The membrane was then soaked in substrate solution (Pierce) and exposed to a film or quantified using an imager. In this assay, the amount of test compound that yielded a 50% reduction in the amount of NS5A or NS3 protein translated as compared to a control sample (IC50) was determined.
In TABLE 1, a value of “+” indicates an IC50 of 10 μM or less in the specified assay; a value of “−” indicates an IC50 of greater than 10 μM in the specified assay.
Background: A western blot detects proteins with antibodies after separation by electrophoresis.

Setting [4] is: Hepatitis C virus, 5-2 Luc replicon cells, luciferase readout.
Where [5] appears, read: Hepatitis C virus, 9–13 replicon cells, NS5A or NS3 Western blot.
Where [6] appears, read: 5-2 Luc replicon cells, luciferase readout.
[7] abbreviates: 9–13 replicon cells, NS5A or NS3 Western blot.

Read-outs that look alike come from different tables or passages of the source.

Consider `O=C(Nc1cc(-c2cc(-c3c(Cl)cccc3Cl)no2)ccc1F)C(Cl)Cl` [Compound 1, 2,2-Dichloro-N-[3-[3-(2,6-dichlorophenyl)-5-isoxazolyl]-6-fluorophenyl]Acetamide], for which the IC50 (usually the midpoint of a concentration-inhibition curve) at 48 h in series [1] is above 10 µM. Besides, the 50% inhibitory concentration (IC50) in series [2] (setting [4]) and in series [3] (setting [5]) was below 10 µM throughout.
Regarding `O=C(Nc1cccc(-c2cc(-c3cccc(Cl)c3Cl)no2)c1)C(Cl)Cl` [Compound 3, 2,2-Dichloro-N-[3-[3-(2,3-dichlorophenyl)-5-isoxazolyl]phenyl]Acetamide], the IC50 at 48 h in series [1] was above 10 µM. The IC50 in series [2] (setting [4]) was above 10 µM; in series [3] (setting [5]), below 10 µM.
For `O=C(Nc1cccc(-c2cc(-c3c(Cl)cccc3Cl)on2)c1)C(Cl)Cl` [Compound 5, 2,2-Dichloro-N-[3-[5-(2,6-dichlorophenyl)-3-isoxazolyl]phenyl]Acetamide], the IC50 at 48 h in series [1] was above 10 µM. Further, the half-inhibitory concentration (IC50) in series [2] (setting [4]) and in series [3] (setting [5]) was below 10 µM throughout.
Take `O=C(Nc1cccc(-c2cc(-c3c(Cl)cccc3Cl)no2)c1)C(Cl)Cl` [Compound 9, 2,2-Dichloro-N-[3-[3-(2,6-dichlorophenyl)-5-isoxazolyl]phenyl]Acetamide]: the melting point – broadly, the temperature of the solid-liquid transition – stood at 167 °C. The IC50 in series [2] (Hepatitis C virus) was below 10 µM. The IC50 in series [3] (Hepatitis C virus) was below 10 µM.
Turning to `O=C(Nc1ccc(F)c(-c2cc(-c3c(Cl)cccc3Cl)no2)c1)C(Cl)Cl` [Compound 13, 2,2-Dichloro-N-[3-[3-(2,6-dichlorophenyl)-5-isoxazolyl]4-fluorophenyl]Acetamide], the IC50 at 48 h in series [1] is above 10 µM. Further, the IC50 in series [2] (setting [4]) and in series [3] (setting [5]) was below 10 µM in each case.
On to `Cc1ccc(F)c(-c2cc(-c3cccc(NC(=O)C(Cl)Cl)c3)on2)c1Cl` [Compound 15, 2,2-Dichloro-N-[3-[3-(2-chloro-6-fluoro-3-methylphenyl)-5-isoxazolyl]phenyl]Acetamide], for which the 50% inhibitory concentration (IC50) at 48 h in series [1] is above 10 µM. Further, the 50% inhibitory concentration (IC50) in series [2] (setting [4]) and in series [3] (setting [5]) was below 10 µM each time.
As to `O=C(Nc1cccc(-c2cc(-c3c(F)cccc3Cl)no2)c1)C(Cl)Cl` [Compound 27, 2,2-Dichloro-N-[3-[3-(2-chloro-6-fluorophenyl)-5-isoxazolyl]phenyl]Acetamide], in series [1], the half-maximal inhibitory concentration (IC50) at 48 h is above 5 µM. For the same compound, the IC50 in series [2] (setting [4]) and in series [3] (setting [5]) was below 10 µM in each case.
Turning to `O=C(CI)Nc1cccc(-c2cc(-c3c(Cl)cccc3Cl)no2)c1` [Compound 101, 2-Iodo-N-[3-[3-(2,6-dichlorophenyl)-5-isoxazolyl]phenyl]Acetamide], the IC50 at 48 h in series [1] is above 10 µM. Further, the IC50 was below 10 µM in series [2] (setting [4]) and above 10 µM in series [3] (setting [5]).
Consider `COC(=O)c1ccc(Cl)c(-c2cc(-c3cccc(NC(=O)C(Cl)Cl)c3)on2)c1Cl` [Compound 135, 2,2-Dichloro-N-[3-[3-(3-carbomethoxy-2,6-dichlorophenyl)-5-isoxazolyl]phenyl]Acetamide], for which, in series [1], the half-maximal inhibitory concentration (IC50) at 48 h was above 10 µM. In addition, the IC50 in series [2] (setting [4]) and in series [3] (setting [5]) was above 10 µM in each case.
For the compound `Cc1cccc(-c2cc(-c3cccc(NC(=O)C(Cl)Cl)c3)on2)c1C` [Compound 163, 2,2-Dichloro-N-[3-[3-(2,3-dimethylphenyl)-5-isoxazolyl]phenyl]Acetamide], the IC50 at 48 h in series [1] is above 10 µM. Also, the IC50 in series [2] (setting [4]) and in series [3] (setting [5]) was above 10 µM in each case.
In the case of `CN(C)C(=O)c1cccc(Cl)c1-c1cc(-c2cccc(NC(=O)C(Cl)Cl)c2)on1` [Compound 692], the IC50 in series [2] (setting [6]) and in series [3] (setting [7]) was below 10 µM throughout.
Turning to `O=C(NCc1ccccn1)c1cccc(Cl)c1-c1cc(-c2cccc(NC(=O)C(Cl)Cl)c2)on1` [Compound 694], the IC50 in series [2] (setting [6]) and in series [3] (setting [7]) was below 10 µM each time.
In the case of `COC(=O)[C@@H](NC(=O)c1cccc(Cl)c1-c1cc(-c2cccc(NC(=O)C(Cl)Cl)c2)on1)C(C)C` [Compound 695], the IC50 is above 10 µM in series [2] (setting [6]) and below 10 µM in series [3] (setting [7]).
Regarding `COC(=O)C(NC(=O)c1cccc(Cl)c1-c1cc(-c2cccc(NC(=O)C(Cl)Cl)c2)on1)C(C)C` (stereo not drawn) [Compound 696], the IC50 in series [2] (setting [6]) and in series [3] (setting [7]) was below 10 µM throughout.
On to `O=C(Nc1cccc(-c2cc(-c3c(Cl)cccc3C(=O)N3CCN(Cc4ccccc4)CC3)no2)c1)C(Cl)Cl` [Compound 697], for which the results for the half-maximal inhibitory concentration (IC50) in series [2] (setting [6]) and in series [3] (setting [7]) were above 10 µM and below 10 µM, respectively.
Taken in the same sequence, the figures for `CC(C)(C)OC(=O)N1CCN(C(=O)c2cccc(Cl)c2-c2cc(-c3cccc(NC(=O)C(Cl)Cl)c3)on2)CC1` [Compound 698] were above 10 µM and below 10 µM.
Taken in the same sequence, the figures for `O=C(Nc1cccc(-c2cc(-c3c(Cl)cccc3OC3CCCC3)no2)c1)C(Cl)Cl` [Compound 699] were below 10 µM and below 10 µM.
Turning to `COc1cccc(C(=O)OC(C)(C)C)c1-c1cc(-c2cccc(NC(=O)C(Cl)Cl)c2)on1` [Compound 700], the values for the IC50 in series [2] (setting [6]) and in series [3] (setting [7]) were below 10 µM and above 10 µM, respectively.
For `CC(C)(C)OC(=O)c1cccc(F)c1-c1cc(-c2cccc(NC(=O)C(Cl)Cl)c2)on1` [Compound 701] the same measures were below 10 µM and below 10 µM.
In the case of `COc1cccc(C(=O)O)c1-c1cc(-c2cccc(NC(=O)C(Cl)Cl)c2)on1` [Compound 702], the IC50 in series [2] (setting [6]) was above 10 µM; in series [3] (setting [7]) it was below 10 µM.
For `O=C(O)c1cccc(F)c1-c1cc(-c2cccc(NC(=O)C(Cl)Cl)c2)on1` [Compound 703] the same measures were above 10 µM and above 10 µM.
For `COC(=O)c1cccc(OC)c1-c1cc(-c2cccc(NC(=O)C(Cl)Cl)c2)on1` [Compound 704] the same measures were above 10 µM and above 10 µM.
Taken in the same sequence, the figures for `COC(=O)c1cccc(F)c1-c1cc(-c2cccc(NC(=O)C(Cl)Cl)c2)on1` [Compound 705] were below 10 µM and below 10 µM.
For the compound `CC(C)Oc1cccc(Cl)c1-c1cc(-c2cccc(NC(=O)C(Cl)Cl)c2)on1` [Compound 706], the IC50 in series [2] (setting [6]) and in series [3] (setting [7]) was below 10 µM in each case.
Take `Cc1oc(=O)oc1COC(=O)c1cccc(Cl)c1-c1cc(-c2cccc(NC(=O)C(Cl)Cl)c2)on1` [Compound 707]: the half-inhibitory concentration (IC50) in series [2] (setting [6]) and in series [3] (setting [7]) was below 10 µM in each case.
For the compound `CCOc1cccc(Cl)c1-c1cc(-c2cccc(NC(=O)C(Cl)Cl)c2)on1` [Compound 708], the IC50 in series [2] (setting [6]) and in series [3] (setting [7]) was below 10 µM each time.
`O=C(Nc1cccc(-c2cc(-c3c(Cl)cccc3OCC3CC3)no2)c1)C(Cl)Cl` [Compound 709]: the IC50 in series [2] (setting [6]) and in series [3] (setting [7]) was below 10 µM in each case.
Take `O=C(Nc1cccc(-c2cc(-c3c(Cl)cccc3OC(F)F)no2)c1)C(Cl)Cl` [Compound 710]: the 50% inhibitory concentration (IC50) in series [2] (setting [6]) and in series [3] (setting [7]) was below 10 µM in each case.

For the origin of these results see patent publication US7115642B2, “Substituted diphenyl isoxazoles, pyrazoles and oxadiazoles useful for treating HCV infection” (priority 2003, dated 2006).
